Reference: article doi:10.1101/2025.05.02.651913 (bioRxiv, 2025)

Assays:
[1] = test system: Mpox-related lesions; conditions: human, in vivo; cited from earlier work
[2] = test system: MPXV Clade IIb; type: cell-based, Mpox virus (MPXV)
[3] = test system: MPXV; conditions: cited from earlier work
[4] = in vivo; cited from earlier work
[5] = test system: MPXV; conditions: in vivo; cited from earlier work
[6] = test system: MPXV strain hMPXV/USA/MA001/2022 (Lineage B.1, Clade IIb); type: cell-based, Mpox virus (MPXV)
[7] = test system: vaccinia virus; conditions: cited from earlier work
[8] = test system: cowpox virus; conditions: cited from earlier work

Which “time to resolution of Mpox-related lesions” value [1] does the source give for O=C(NN1C(=O)[C@@H]2[C@@H]3C=C[C@@H]([C@H]4C[C@@H]34)[C@@H]2C1=O)c1ccc(C(F)(F)F)cc1 [Tecovirimat] here?
The value was “did not reduce the time to resolution of Mpox-related lesions”.

And the “antiviral activity against MPXV Clade IIb” value [2]?
The value was “did not exhibit strong antiviral activity”.

Which “MPXV replication in vitro” value [3] does the source give for NC(=O)c1ncn([C@@H]2O[C@H](CO)[C@@H](O)[C@H]2O)n1 [Ribavirin] here?
Its value is “block MPXV replication”.

What about the “adverse effect in humans” value [4] of the same compound?
Its value is “severe bone marrow suppression”.

And the “MPXV replication in mouse models” value [5]?
Its value is “block MPXV replication”.

With COc1cc2ncnc(Nc3ccc(F)c(Cl)c3)c2cc1OCCCN1CCOCC1 [Gefitinib] as the compound, how does the “Duplicate of Duplicate of Hits: No CPE” value [6] read?
Its value is 1.

And the vaccinia virus replication [7]?
The vaccinia virus replication was “reduce vaccinia and cowpox virus replication”.

And the cowpox virus replication [8]?
Its cowpox virus replication is “reduce vaccinia and cowpox virus replication”.
